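Tested at 5 concentrations; 48 h exposure; 96-well plates; endpoints linearly interpolated, else capped at highest concentration. The concentration for 50% growth inhibition is given as GI50. TGI: total growth inhibition.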
Key:
Experiment in all cases: NCI tumour cell line growth inhibition, 48 h
MCF7 breast = tested on: MCF7 breast
OVCAR-8 ovarian = tested on: OVCAR-8 ovarian
SW-620 colon = tested on: SW-620 colon
SF-539 CNS = tested on: SF-539 CNS
UO-31 renal = tested on: UO-31 renal
UACC-257 melanoma = tested on: UACC-257 melanoma
MOLT-4 leukemia = tested on: MOLT-4 leukemia
CCRF-CEM leukemia = tested on: CCRF-CEM leukemia
IGROV1 ovarian = tested on: IGROV1 ovarian
NCI-H226 lung = tested on: NCI-H226 lung
T-47D breast = tested on: T-47D breast
HL-60(TB) leukemia = tested on: HL-60(TB) leukemia
BT-549 breast = tested on: BT-549 breast
K-562 leukemia = tested on: K-562 leukemia
SNB-19 CNS = tested on: SNB-19 CNS
A498 renal = tested on: A498 renal
COLO 205 colon = tested on: COLO 205 colon
HCC-2998 colon = tested on: HCC-2998 colon
NCI/ADR-RES ovarian = tested on: NCI/ADR-RES ovarian
NCI-H460 lung = tested on: NCI-H460 lung
HOP-62 NSCLC = tested on: HOP-62 NSCLC
MDA-MB-435 = tested on: MDA-MB-435
A549 NSCLC = tested on: A549 NSCLC
DU-145 prostate = tested on: DU-145 prostate
UACC-62 melanoma = tested on: UACC-62 melanoma
MDA-MB-231 breast = tested on: MDA-MB-231 breast
HCT-116 colon = tested on: HCT-116 colon
CAKI-1 renal = tested on: CAKI-1 renal
RPMI-8226 leukemia = tested on: RPMI-8226 leukemia
HT29 colon = tested on: HT29 colon
MALME-3M melanoma = tested on: MALME-3M melanoma
SK-MEL-28 melanoma = tested on: SK-MEL-28 melanoma
M14 melanoma = tested on: M14 melanoma
OVCAR-4 ovarian = tested on: OVCAR-4 ovarian
TK-10 renal = tested on: TK-10 renal
HCT-15 colon = tested on: HCT-15 colon
SF-268 CNS = tested on: SF-268 CNS
786-0 renal = tested on: 786-0 renal
U251 CNS = tested on: U251 CNS
PC-3 prostate = tested on: PC-3 prostate
SF-295 CNS = tested on: SF-295 CNS
SN12C renal = tested on: SN12C renal
OVCAR-3 ovarian = tested on: OVCAR-3 ovarian
SNB-75 CNS = tested on: SNB-75 CNS
ACHN renal = tested on: ACHN renal
SK-MEL-5 melanoma = tested on: SK-MEL-5 melanoma
SR leukemia = tested on: SR leukemia
NCI-H23 lung = tested on: NCI-H23 lung
NCI-H522 lung = tested on: NCI-H522 lung
OVCAR-5 ovarian = tested on: OVCAR-5 ovarian
RXF 393 renal = tested on: RXF 393 renal
HS 578T breast = tested on: HS 578T breast
SK-OV-3 ovarian = tested on: SK-OV-3 ovarian
KM12 colon = tested on: KM12 colon

For `COc1ccc(CCc2nc3cc(-c4c(C)noc4C)ccc3n2CCN2CCOCC2)cc1`, the GI50 (MCF7 breast) was 4.32 µM, the TGI (MCF7 breast) was over 100 µM and the GI50 (OVCAR-8 ovarian) was 35.9 µM. For the same compound, the TGI (OVCAR-8 ovarian) was over 100 µM, the GI50 (SW-620 colon) was 58.1 µM and the TGI (SW-620 colon) was over 100 µM. The GI50 (SF-539 CNS) was 34.6 µM, the TGI (SF-539 CNS) was over 100 µM and the GI50 (UO-31 renal) was 2.49 µM. The TGI (UO-31 renal) was over 100 µM, the GI50 (UACC-257 melanoma) was 13.6 µM and the TGI (UACC-257 melanoma) was over 100 µM. The GI50 (MOLT-4 leukemia) was 34.5 µM, the TGI (MOLT-4 leukemia) was over 100 µM and the GI50 (CCRF-CEM leukemia) was 26.9 µM. For the same compound, the TGI (CCRF-CEM leukemia) was over 100 µM, the GI50 (IGROV1 ovarian) was 22.9 µM and the TGI (IGROV1 ovarian) was over 100 µM. The GI50 (NCI-H226 lung) was 31.1 µM, the TGI (NCI-H226 lung) was over 100 µM and the GI50 (T-47D breast) was 16.1 µM. For the same compound, the TGI (T-47D breast) was over 100 µM, the GI50 (HL-60(TB) leukemia) was 10.4 µM and the TGI (HL-60(TB) leukemia) was over 100 µM. It also gave a GI50 (BT-549 breast) of 40.5 µM, a TGI (BT-549 breast) of over 100 µM and a GI50 (K-562 leukemia) of 19.9 µM. It also gave a TGI (K-562 leukemia) of over 100 µM, a GI50 (SNB-19 CNS) of 35.5 µM and a TGI (SNB-19 CNS) of over 100 µM. The GI50 (A498 renal) was 10.1 µM, the TGI (A498 renal) was 32.8 µM and the GI50 (COLO 205 colon) was 12.7 µM. For the same compound, the TGI (COLO 205 colon) was over 100 µM, the GI50 (HCC-2998 colon) was 19.9 µM and the TGI (HCC-2998 colon) was 97.5 µM. For the same compound, the GI50 (NCI/ADR-RES ovarian) was 27.9 µM, the TGI (NCI/ADR-RES ovarian) was over 100 µM and the GI50 (NCI-H460 lung) was 65.1 µM. The TGI (NCI-H460 lung) was over 100 µM, the GI50 (HOP-62 NSCLC) was 44.6 µM and the TGI (HOP-62 NSCLC) was over 100 µM. It also gave a GI50 (MDA-MB-435) of 14.9 µM, a TGI (MDA-MB-435) of over 100 µM and a GI50 (A549 NSCLC) of 45 µM. For the same compound, the TGI (A549 NSCLC) was over 100 µM, the GI50 (DU-145 prostate) was 86.2 µM and the TGI (DU-145 prostate) was over 100 µM. The GI50 (UACC-62 melanoma) was 11.1 µM, the TGI (UACC-62 melanoma) was over 100 µM and the GI50 (MDA-MB-231 breast) was 28.6 µM. For the same compound, the TGI (MDA-MB-231 breast) was over 100 µM, the GI50 (HCT-116 colon) was 29.4 µM and the TGI (HCT-116 colon) was over 100 µM. The GI50 (CAKI-1 renal) was 7.94 µM, the TGI (CAKI-1 renal) was over 100 µM and the GI50 (RPMI-8226 leukemia) was 6.12 µM. It also gave a TGI (RPMI-8226 leukemia) of 49.4 µM, a GI50 (HT29 colon) of 13.7 µM and a TGI (HT29 colon) of over 100 µM. It also gave a GI50 (MALME-3M melanoma) of 6.64 µM, a TGI (MALME-3M melanoma) of over 100 µM and a GI50 (SK-MEL-28 melanoma) of 39.5 µM. For the same compound, the TGI (SK-MEL-28 melanoma) was over 100 µM, the GI50 (M14 melanoma) was 21.6 µM and the TGI (M14 melanoma) was over 100 µM. For the same compound, the GI50 (OVCAR-4 ovarian) was 5.28 µM, the TGI (OVCAR-4 ovarian) was over 100 µM and the GI50 (TK-10 renal) was 10.1 µM. It also gave a TGI (TK-10 renal) of over 100 µM, a GI50 (HCT-15 colon) of 12.5 µM and a TGI (HCT-15 colon) of over 100 µM. It also gave a GI50 (SF-268 CNS) of 41.6 µM, a TGI (SF-268 CNS) of over 100 µM and a GI50 (786-0 renal) of 24.4 µM. The TGI (786-0 renal) was over 100 µM, the GI50 (U251 CNS) was 38.7 µM and the TGI (U251 CNS) was over 100 µM. For the same compound, the GI50 (PC-3 prostate) was 16.3 µM, the TGI (PC-3 prostate) was over 100 µM and the GI50 (SF-295 CNS) was 23 µM. The TGI (SF-295 CNS) was over 100 µM, the GI50 (SN12C renal) was 34.9 µM and the TGI (SN12C renal) was over 100 µM. It also gave a GI50 (OVCAR-3 ovarian) of 20.3 µM, a TGI (OVCAR-3 ovarian) of 59.8 µM and a GI50 (SNB-75 CNS) of 2.47 µM. It also gave a TGI (SNB-75 CNS) of over 100 µM, a GI50 (ACHN renal) of 25.9 µM and a TGI (ACHN renal) of over 100 µM. For the same compound, the GI50 (SK-MEL-5 melanoma) was 13.4 µM, the TGI (SK-MEL-5 melanoma) was 43.8 µM and the GI50 (SR leukemia) was 7.01 µM. The TGI (SR leukemia) was over 100 µM, the GI50 (NCI-H23 lung) was 45.3 µM and the TGI (NCI-H23 lung) was over 100 µM. It also gave a GI50 (NCI-H522 lung) of 12.4 µM, a TGI (NCI-H522 lung) of 69.4 µM and a GI50 (OVCAR-5 ovarian) of 71.8 µM. It also gave a TGI (OVCAR-5 ovarian) of over 100 µM, a GI50 (RXF 393 renal) of 18.7 µM and a TGI (RXF 393 renal) of 82.4 µM. The GI50 (HS 578T breast) was 9.16 µM, the TGI (HS 578T breast) was over 100 µM and the GI50 (SK-OV-3 ovarian) was 26 µM. It also gave a TGI (SK-OV-3 ovarian) of over 100 µM, a GI50 (KM12 colon) of 17.5 µM and a TGI (KM12 colon) of over 100 µM.

— PubChem BioAssay (NCI)
